Measured values taken from US9897613B2, “Mass spectrometric measurement of microbial resistances” (Bruker Daltonik GmbH, priority 2007, dated 2018).

Legend:
[1] = tested on: non-resistant type of E. coli; experiment: Mass spectrometric (MALDI) protein profile after incubation with antibiotic in liquid nutrient medium, non-resistant strain; assay type: cell-based, Escherichia coli; conditions: ampicillin in a liquid nutrient medium allowed to act for two hours, FIG. 2 top
Method: (§1) The non-resistant type of E. coli (top) has been destroyed; all protein signals of the mass spectra from FIG. 1 have disappeared.
(§2) The illustrative method starts in step 300 and comprises the following steps: • (a) In step 302, a quantity of microbes under investigation is added to a nutrient medium which also contains a quantity of the antibiotic, • (b) Next, in step 304, the microbes are incubated at a predetermined temperature for a predetermined length of time, preferably not longer than a few hours, • (c) In step 306, the microbes are then removed from the nutrient medium by a suitable means, such as centrifuging, • (d) The microbes are then applied, in step 308, together with a matrix solution to a mass spectrometric sample support and the matrix solution is dried on the sample support to form a sample, • (e) In step 310, a mass spectrum of this sample is acquired, and • (f) Then, in step 312, the acquired mass spectrum is compared with reference mass spectra of these microbes. The process then finishes in step 314.
Infectious microbes are incubated for about two hours at temperatures of between 35° C. and 40° C. in the presence of the antibiotics. This temperature is the optimum one for most infectious microbes because they are generally adapted to a life in mammals. […]

[2] = tested on: E. coli with a resistance to ampicillin due to a plasmid pUC19; experiment: Mass spectrometric (MALDI) protein profile after incubation with antibiotic in liquid nutrient medium, resistant strain; assay type: cell-based, Escherichia coli; conditions: ampicillin in a liquid nutrient medium allowed to act for two hours, FIG. 2 bottom
Method: The mass spectra contain predominantly protein signals of the same mass, with the usual lack of reproducibility of the intensities. They are identified as being identical by suitable computer programs.
as §1, §2
Infectious microbes are incubated for about two hours at temperatures of between 35° C. and 40° C. in the presence of the antibiotics. […]

CC1(C)S[C@@H]2[C@H](NC(=O)[C@H](N)c3ccccc3)C(=O)N2[C@H]1C(=O)O [ampicillin]
effect on microbes / protein signals of the mass spectrum [1]: destroyed
effect on microbes / protein profile of the mass spectrum [2]: protein profile which is sufficiently similar to the two mass spectra in FIG. 1
